This note sets out measurements from paper PMC11852920, “The Diacylglycerol Acyltransferase 3 of Chlamydomonas reinhardtii Is a Disordered Protein Capable of Binding to Lipids Derived from Chloroplasts” (Biomolecules, 2025).

The target in the experiment is T1, DGAT3 (Chlamydomonas reinhardtii, UniProt A8IMA8).
T1 construct: gene CHLRE_06g310200v5; Trp216, Trp218, Tyr294 (only Trp/Tyr residues); 18 Asp, 22 Glu, 6 Phe, 9 His; chloroplast protein
T1 sequence (A8IMA8 2-346): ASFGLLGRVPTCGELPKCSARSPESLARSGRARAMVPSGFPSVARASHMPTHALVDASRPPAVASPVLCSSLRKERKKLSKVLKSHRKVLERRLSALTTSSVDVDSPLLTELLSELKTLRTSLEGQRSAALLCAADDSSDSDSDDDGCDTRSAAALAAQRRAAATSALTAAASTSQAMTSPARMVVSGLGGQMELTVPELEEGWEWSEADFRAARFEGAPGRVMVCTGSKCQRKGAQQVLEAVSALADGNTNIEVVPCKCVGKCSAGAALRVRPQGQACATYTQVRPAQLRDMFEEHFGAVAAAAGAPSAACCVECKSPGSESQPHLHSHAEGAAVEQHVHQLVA
Briefly: steady-state intrinsic Trp fluorescence anisotropy titration with lipid vesicles. As to conditions: partition coefficient (protein between water and lipid phase), not a Kd; anionic POPG vesicles (bilayer, not monomeric lipid); 5 uM protein, 50 mM Tris, 100 mM NaCl, 5 mM TCEP, pH 8; 25 °C. In kind it is binding. For orientation: In fluorescence polarisation assays a small probe gives low polarisation when free and higher when bound to something large.

`CCCCCCCC/C=C\CCCCCCCC(=O)O[C@H](COC(=O)CCCCCCCCCCCCCCC)COP(=O)(O)OCC(O)CO` (mixture of isomers) [POPG, 1-palmitoyl-2-oleoyl-sn-glycero-3-phospho-(1′-rac-glycerol)]: the Kp is given as ~ 40,000.
